Earlier results as cited in PMC4257705 (Organic letters, 2009).

Biological target: αVβ3
Conditions: tripeptide sequence Arg-Gly-Asp (RGD)

## Arg-Gly-Asp [RGD]
  Kd: ~1 nM
